Values of other authors, collected in patent US9464021B2, “Method of preparation of stereospecific quinone derivatives” (priority 2013, dated 2016).

Experiments:
[1] = liver fractions
[2] = in vivo

| Structure (SMILES) | hepatic subcellular distribution [1] | biological activity as vitamin K [2] |
| --- | --- | --- |
| CC1=C(C/C=C(/C)CCC[C@H](C)CCC[C@H](C)CCCC(C)C)C(=O)c2ccccc2C1=O (relative stereo) [cis-phylloquinone] | retained preferentially by mitochondria | little or no biological activity as vitamin K |
| CC1=C(C/C=C(\C)CCC[C@H](C)CCC[C@H](C)CCCC(C)C)C(=O)c2ccccc2C1=O (single isomer, unassigned) [trans isomer, phylloquinone] | associated principally with the microsomal fraction and subfractions | full potency of the vitamin |
